Columns and labels:
zebrafish embryos = experiment: Intersegmental vessel (ISV) branching in zebrafish embryos; format: in vivo; details: human SerRS mRNA co-injected with SerRS-MO, 3 dpf
Method: In FIG. 2A, wild type SerRS (SerRS^WT), its mutants with double substitutions of serine 101 and 241 with alanine or aspartic acid residues (SerRS^S101A/S241A and SerRS^S101D/S241D), or empty vector were transfected into HEK293 cells. The expression levels of SerRS proteins was measured by immunoblot (bottom) and VEGFA expression was determined by qRT-PCR (means±SEM from three independent experiments; ***P<0.0001). In FIGS. 2B-D, the roles of SerRS^S101A/S241A and SerRS^S101D/S241D in regulating vascular development in vivo in zebrafish were examined by co-injection of SerRS^S101A/S241A and SerRS^S101D/S241D mRNAs into one-cell-stage embryos whose endogenous SerRS was knocked down by injection of antisense morpholino (SerRS-MO) that led to abnormal high expression of Vegfa and hypervascularization (shown by short bold arrows in FIG. 2C). At 3 day post fertilization (dpf), embryos were harvested and Vegfa expression levels were measured by qRT-PCR (means±SEM, n=125-211; *P<0.01, **P<0.001) (B). The development of intersegmental vessel (ISV) at 3 dpf was examined (C) and the statistics of ISV abnormal branching rescued by SerRS^WT or mutant SerRS mRNA injections was analyzed (D; χ^2-test,* P>0.05 vs SerRS^WT, **P>0.1 vs SerRS-MO, ***P<1×10^−28 vs control-MO). In FIG. 2E, the binding affinities of SerRS^WT or SerRS^S101D/S241D with ^32P labeled DNA fragments corresponding to SerRS binding site on human VEGFA promoter were examined by EMSA. In FIG. 2F, the binding of SerRS^WT, SerRS^S101A/S241A, or SerRS^S101D/S241D on VEGFA promoter in HEK293 cells was examined by chromatin immunoprecipitation (ChIP) and qPCR (means±SEM from two independent experiments; ***P<0.0001). In FIG. 2G, the binding of endogenous SerRS on VEGFA promoter during hypoxia course was monitored by ChIP (means±SEM from three independent experiments; *P<0.05, **P<0.005 vs normal).
Transgenic Tg (Fli1a: EGFP) fish were maintained as we described before (Ref). The fish embryos were kept at 28.5° C. before and after microinjection. The antisense morpholino (MOs) targeting SerRS was injected into the yolk of 1-cell stage embryos at the dosage of 4˜5 ng per embryo. The sequence of SerRS-MO is (Ref). The SerRS-MO (5′ AGGAGAATGTGAACAAACCTGACAC 3′ (SEQ ID NO: 34)) and standard control MO (5′ CCTCTTACCTCAGTTACAATTTATA 3′ (SEQ ID NO: 35)) were purchased from Gene Tools, LLC (Philomath, Oreg. USA). After injection, embryos were incubated in E3 embryo medium supplemented with 0.003% 1-phenyl-2-thiourea (PTU) at 28.5° C. to prevent pigment formation. […] The rescue effects of different SerRS mutants on ISV development were analyzed with χ^2 test. […]

3B11 endothelial cells = experiment: Matrigel plug angiogenesis assay with stably transfected 3B11 cells; format: in vivo; details: 3B11 cells stably transfected with mouse SerRS gene, C3H/HeJ mice, 14 days
Method: In FIG. 4A, mouse 3B11 endothelial cells were stably transfected with mouse wild type SerRS or mutant SerRS and the expression of SerRS were examined by immunoblot with anti-SerRS antibody and quantified by the density of the bands. In FIGS. 4B-C, Matrigel plug angiogenesis assay was performed with stably transfected 3B11 cells in C3H/HeJ mice. Matrigel plugs (dash lines enclosed regions) excised 14 days after implantation were analyzed by immunohistochemistry for CD31 (FIG. 4B) and microvessel density was quantified (FIG. 4C) (n=10-15).
A total of 10^6 of stably transfected 3B11 cells were resuspended in 100 μl of DMEM medium supplemented with 10% FBS and then mixed with 200 μl of ice-cold matrigel (BD Biosciences, San Jose, Calif., USA) liquid on ice. The 300 μl of cell and matrigel mixture was injected subcutaneously into a flank of C3H/HeJ mice (two injection sites per mouse and 5-6 mice in each group) (Jackson Laboratory). After inoculation for 14 days, the matrigel plugs were excised and frozen in Tissue-Tek® OCT compound for cryostat sectioning. All the mouse experiments were conducted according to the guidelines established by the Institutional Animal Care and Use Committee (IACUC) at The Scripps Research Institute, IACUC approval protocol number 13-0003.
5-μm sections from freshly frozen tumor xenograft and matrigel plugs were treated with acetone and 3% H2O2 to block endogenous peroxidase. After 3-5 times wash and goat serum block, the sections were incubated with an anti-CD31 antibody (1:3000; Cell Signaling Technology) overnight at 4° C. The blood vessels were counted in 5-10 random viable fields (120×) in tumor xenograft samples and microvessel density in matrigel plugs was quantified by measuring the CD31 staining density using Image J software. To detect the hypoxia, we incubated the slides with anti-HIF1α antibody (1:100; Novus Biologicals).
A matrigel plug angiogenesis assay was used. […] At the same time, the microvasculature in the plug was evaluated by CD31 immuno-staining.

Substance	zebrafish embryos with abnormal hyper-ISV branching phenotype (zebrafish embryos)	microvessel formation in the matrigel plug (CD31) (3B11 endothelial cells)
SerRS^S101A/S241A: phosphorylation-deficient human SerRS double mutant, serine 101 and 241 to alanine, SEQ ID NO: 4 (mouse version in matrigel assay)	26.4%	strongly suppressed the microvessel formation
SerRS^S101D/S241D: SerRS with double substitutions of S101 and S241 with aspartic acid, mimics the phosphorylated SerRS	62.7%	did not suppress microvascular formation
SerRS^WT: wildtype human seryl-tRNA synthetase protein, SEQ ID NO: 1 (mouse wild type used in the 3B11 matrigel assay)	17.9%	did not suppress microvascular formation

— US20190167771A1, “CONTROL ANGIOGENESIS BY REGULATING PHOSPHORYLATION OF SERYL-tRNA SYNTHETASE (SerRS)” (The Scripps Research Institute, priority 2016, published 2019)
